Results on 19 compounds are retold here after ChEMBL document CHEMBL5512619, “Anticancer mechanism of coumarin-based derivatives” (Eur J Med Chem, 2024).

Each structure is given as a SMILES string. In brackets after ≈: the same amount, converted by molar mass.

Data set [1] relates to T-cell. The data set can be described thus: Cytotoxicity against mouse T-lymphocyte cells by MTT assay. The format is functional, cell-based.
Data set [2] has as its system EL4. The data set can be described thus: Cytotoxicity against mouse EL4 cells by MTT assay. In kind it is functional, cell-based. In general terms: Tetrazolium assays rely on reduction of a dye to a coloured formazan, in cell work by metabolically active cells.
A short description of data set [3]: Cytotoxicity against mouse LB3 cells by MTT assay. In kind it is functional, cell-based.
In data set [4] the target is Tubulin. The data set can be described thus: Inhibition of tubulin polymerization (unknown origin) by spectrophotometric method. In kind it is protein-complex assay, Homo sapiens.
Data set [5] has as its system MCF7. The data set is described as follows: Cytotoxicity against human MCF7 cells by MTT assay. In kind it is functional, cell-based.
Data set [6] deals with MDA-MB-231. The data set can be described thus: Cytotoxicity against human MDA-MB-231 cells by MTT assay. The format is functional, cell-based.
In data set [7] the test system is HeLa. The data set can be described thus: Antiproliferative activity against human HeLa cells. In kind it is functional, cell-based.
The subject of data set [8] is MCF7. The data set is described as follows: Cytotoxicity against human MCF7 cells assessed as inhibition of cell growth by MTT assay. In kind it is functional, cell-based.
A short description of data set [9]: Cytotoxicity against human BEAS-2B cells assessed as inhibition of cell growth by MTT assay. The format is toxicity, cell-based.
Data set [10] deals with A549. The data set is described as follows: Cytotoxicity against human A549 cells assessed as inhibition of cell growth by MTT assay. The format is functional, cell-based.
Data set [11] addresses Carbonic anhydrase 1 (Homo sapiens, UniProt P00915). The data set can be described thus: Binding affinity to human CA1 assessed as inhibition constant incubated for 10 mins by phenol red dye based stopped flow CO2 hydration assay.
Data set [12] addresses Carbonic anhydrase 12 (Homo sapiens, UniProt O43570). The data set can be described thus: Binding affinity to human CA12 assessed as inhibition constant incubated for 10 mins by phenol red dye based stopped flow CO2 hydration assay.
In data set [13] the target is Carbonic anhydrase 2 (Homo sapiens, UniProt P00918). The data set is described as follows: Binding affinity to human CA2 assessed as inhibition constant incubated for 10 mins by phenol red dye based stopped flow CO2 hydration assay.
The target of data set [14] is Carbonic anhydrase 9 (Homo sapiens, UniProt Q16790). The data set can be described thus: Binding affinity to human CA9 assessed as inhibition constant incubated for 10 mins by phenol red dye based stopped flow CO2 hydration assay.
The test system of data set [15] is HeLa. The data set is described as follows: Antiproliferative activity against human HeLa cells incubated for 48 hrs by MTT assay. In kind it is functional, cell-based.
In data set [16] the test system is A549. The data set is described as follows: Antiproliferative activity against human A549 cells incubated for 48 hrs by MTT assay. The format is functional, cell-based. As to conditions: A549, 48 h.
The target in data set [17] is Bromodomain-containing protein 4 (Homo sapiens, UniProt O60885). The data set can be described thus: Inhibition of BRD4 (unknown origin).
Data set [18] has as its system T98G. The data set is described as follows: Induction of apoptosis in human T98G cells relative to control. In kind it is functional.
The test system of data set [19] is MDA-MB-231. The data set is described as follows: Antiproliferative activity against human MDA-MB-231 cells incubated for 96 hrs by MTT assay. Conditions: MDA-MB-231, 96 h.
The subject of data set [20] is HepG2. The data set can be described thus: Induction of apoptosis in human HepG2 cells at 1 time IC50 incubated for 24 hrs by annexin V-FITC and PI staining based flow cytometry analysis relative to control. The format is functional. For orientation: Flow cytometry measures light scatter and fluorescence of single cells or particles in a stream.
Data set [21] concerns HepG2. The data set is described as follows: Cytotoxicity against human HepG2 cells incubated for 2 days by Neutral Red staining based assay. In kind it is functional, cell-based. Conditions: HepG2, 48 h.
For data set [22], the system named is HepG2. The data set is described as follows: Induction of apoptosis in human HepG2 cells assessed as necrotic cells at 2 times IC50 incubated for 12 hrs by annexin V-FITC and PI staining based flow cytometry analysis relative to control. In kind it is functional.
Data set [23] deals with HepG2. The data set is described as follows: Induction of apoptosis in human HepG2 cells assessed as necrotic cells at 1 time IC50 incubated for 24 hrs by annexin V-FITC and PI staining based flow cytometry analysis relative to control. In kind it is functional.
Data set [24] is described as follows: Cytotoxicity against African green monkey Vero cells incubated for 2 days by Neutral Red staining based assay. The format is toxicity, cell-based, Chlorocebus sabaeus.
Data set [25] has as its system SK-LU-1. The data set is described as follows: Cytotoxicity against human SK-LU-1 cells incubated for 2 days by Neutral Red staining based assay. The format is functional, cell-based. Conditions: SK-LU-1, 48 h.
Data set [26] deals with HepG2. The data set is described as follows: Induction of apoptosis in human HepG2 cells assessed as necrotic cells at 2 times IC50 incubated for 24 hrs by annexin V-FITC and PI staining based flow cytometry analysis relative to control. The format is functional.
Data set [27] deals with HCT-116. The data set can be described thus: Cytotoxicity against human HCT-116 cells incubated for 2 days by Neutral Red staining based assay. In kind it is functional, cell-based. As to conditions: HCT-116, 48 h.
For data set [28], the system named is HepG2. The data set can be described thus: Induction of apoptosis in human HepG2 cells assessed as necrotic cells at 1 time IC50 incubated for 12 hrs by annexin V-FITC and PI staining based flow cytometry analysis relative to control. The format is functional.
The test system of data set [29] is HepG2. The data set is described as follows: Induction of apoptosis in human HepG2 cells at 2 times IC50 incubated for 24 hrs by annexin V-FITC and PI staining based flow cytometry analysis relative to control. In kind it is functional.
Data set [30] has as its system MCF7. The data set is described as follows: Antiproliferative activity against human MCF7 cells measured after 72 hrs by MTT assay. The format is functional, cell-based. Conditions: MCF7, 72 h.
The nature of data set [31]: Inhibition of DNA topoisomerase II (unknown origin).
In data set [32] the test system is SK-OV-3. The data set can be described thus: Antiproliferative activity against human SK-OV-3 cells measured after 21 hrs by MTT assay. The format is functional, cell-based. As to conditions: SK-OV-3, 21 h.
Data set [33] deals with MDA-MB-231. The data set is described as follows: Inhibition of cell invasion in human MDA-MB-231 cells at 100 uM measured after 24 hrs by crystal violet staining based microscopy analysis relative to control. The format is functional.
The nature of data set [34]: Induction of apoptosis in human MOG-G-CCM cells relative to control. The format is functional.
Data set [35] is described as follows: Induction of autophagy in human MOG-G-CCM cells relative to control. In kind it is functional.
Data set [36] has as its system KB. The data set can be described thus: Antiproliferative activity against human KB cells measured after 48 hrs by MTT assay. In kind it is functional, cell-based.

Carbonic anhydrase 1, sequence (P00915 whole entry): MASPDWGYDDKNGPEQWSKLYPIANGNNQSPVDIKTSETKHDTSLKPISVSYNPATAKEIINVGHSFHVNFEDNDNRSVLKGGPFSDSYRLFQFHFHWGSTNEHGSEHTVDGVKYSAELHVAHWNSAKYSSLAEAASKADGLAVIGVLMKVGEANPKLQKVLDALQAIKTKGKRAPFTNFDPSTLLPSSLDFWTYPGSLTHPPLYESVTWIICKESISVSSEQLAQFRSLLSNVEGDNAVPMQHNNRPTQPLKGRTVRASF
Carbonic anhydrase 12, sequence (O43570 whole entry): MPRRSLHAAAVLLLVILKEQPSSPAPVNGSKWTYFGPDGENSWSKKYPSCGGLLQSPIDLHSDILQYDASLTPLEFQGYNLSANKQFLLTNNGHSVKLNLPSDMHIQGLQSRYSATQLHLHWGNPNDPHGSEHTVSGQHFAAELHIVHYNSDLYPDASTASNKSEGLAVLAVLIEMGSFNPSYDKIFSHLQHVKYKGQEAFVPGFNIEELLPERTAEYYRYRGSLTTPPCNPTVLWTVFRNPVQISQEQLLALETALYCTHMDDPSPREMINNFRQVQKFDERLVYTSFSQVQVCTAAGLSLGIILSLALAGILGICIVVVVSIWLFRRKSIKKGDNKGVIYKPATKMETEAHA

In general, IC50 refers to the concentration that gives 50% inhibition. `O=C(CCCCCNC(=O)c1cc(C(=O)NCCCCCC(=O)Nc2ccc(-c3c(-c4ccc(OCCN5CCCCC5)cc4)c4ccc(OCCN5CCCCC5)cc4oc3=O)cc2)cc(C(=O)NCCCCCC(=O)Nc2ccc(-c3c(-c4ccc(OCCN5CCCCC5)cc4)c4ccc(OCCN5CCCCC5)cc4oc3=O)cc2)c1)Nc1ccc(-c2c(-c3ccc(OCCN4CCCCC4)cc3)c3ccc(OCCN4CCCCC4)cc3oc2=O)cc1`: the IC50 in data set [1], in data set [2] and in [3] was 10 µM throughout.
On to `COc1ccc2c3c(c(=O)oc2c1)CC(C(C)(O)CC/C=C(\C)CCC=C(C)C)O3` (stereo unspecified), for which the IC50 was determined as 9.2 µM in data set [4], 19.8 µM in data set [5] and 15.6 µM in [6].
In data set [7], `Cc1c(C(C)C)c(=O)oc2cc(O)cc(O)c12` came in with an IC50 of 8 µM.
Consider `C/C(=N\Cc1ccc(O)cc1)c1c(O)c2ccccc2oc1=O`, for which the IC50 turned out to be 1.41 µg/mL (≈ 4.56 µM) in data set [8], 4.08 µg/mL (≈ 13.2 µM) in data set [9] and 6.09 µg/mL (≈ 19.7 µM) in data set [10].
As a reminder, the Ki is the dissociation constant of the complex between target and ligand, obtained from inhibition or displacement. For `Cc1ccc(C(=O)Nc2ccc3c(c2)C=CS(=O)(=O)O3)cc1S(=O)(=O)N1C[C@@H](C)O[C@@H](C)C1`, the Ki in data set [11] is 0.0994 µM; in [12] it was 0.0306 µM; in [13], 0.0994 µM; in data set [14], 0.0306 µM.
`Cc1ccc2oc(=O)cc(COc3c(C)occc3=O)c2c1`: the IC50 in data set [15] and in data set [16] was 2.47 µM each time.
Compound `CCS(=O)(=O)Nc1ccc(Oc2ccccc2OC)c(-c2ccc3oc(=O)cc(OC)c3c2)c1` gave an IC50 in data set [17] of 0.099 µM.
As for `O=C(Nc1ccc2c(c1)C=CS(=O)(=O)O2)c1ccc(F)c(S(=O)(=O)N2CCCCC2)c1`, the Ki in data set [11] amounted to 0.0994 µM; in [12] it was 0.0306 µM; in data set [13] it was 0.0994 µM; in data set [14] it was 0.0306 µM.
On to `O=c1cc(O)c2ccccc2o1` [4-HYDROXYCOUMARINS], for which, in data set [18], the Activity is recorded as 15%. For the same compound, the IC50 in data set [19] is > 100 µM.
For `C=CC(C)(C)c1cc2c(O)c3c(c(C(C)(C)C=C)c2oc1=O)OC(C)(C)C=C3` [CLAUSARIN], the Activity is reported as 49.7% in [20]; 27.4% in data set [22]; 1.6% in data set [23]; 2.7% in data set [26]; 6.8% in data set [28]; 64.2% in [29]. The IC50 in data set [21] stood at 7.6 µM; in data set [25] it was 6.9 µM; in data set [27], 44.6 µM. Also, the IC50 at 2 days in data set [24] came to 78.2 µM.
In [30], `O=c1ccc2ccc(O)c(O)c2o1` [DAPHNETIN] returned an IC50 of 73 µM.
In the case of `COc1cccc2c1C(=O)c1c(O)c3c(c(O)c1C2=O)C[C@@](O)(C(=O)CO)C[C@@H]3O[C@H]1C[C@H](N)[C@H](O)[C@H](C)O1` [DOXORUBICIN], the IC50 in data set [31] was found to be 9.65 µM; in data set [19], 0.6 µM.
As to `O=c1ccc2cc(O)c(O)cc2o1` [ESCULETIN], the IC50 in data set [30] was 193 µM.
On to `CC(C)(O[C@@H]1O[C@H](CO)[C@@H](O)[C@H](O)[C@H]1O)[C@H]1Cc2cc3ccc(=O)oc3cc2O1` [NODAKENIN], for which the IC50 in [32] is > 100 µM.
By inhibition is commonly meant the share of the control response that was lost under treatment. `COc1ccc2ccc(=O)oc2c1CC=C(C)C` [OSTHOLE]: 100 µM produced 97.6% inhibition in data set [33].
Consider `O=c1ccc2ccc(O[C@@H]3O[C@H](CO)[C@@H](O)[C@H](O)[C@H]3O)cc2o1` [SKIMMIN], for which the IC50 in data set [32] is > 100 µM.
Consider `CNC(=O)c1cc(Oc2ccc(NC(=O)Nc3ccc(Cl)c(C(F)(F)F)c3)cc2)ccn1` [SORAFENIB], for which the Activity in data set [34] is on record as 25%; in data set [35] it was 1%.
In the case of `O=c1ccc2ccc(O)cc2o1` [UMBELLIFERONE], the Activity in [18] worked out at 15%. In [36], this compound displayed an IC50 of 200 µM.
For `COc1c2c(cc3oc(=O)ccc13)OC(C)(C)C=C2` [XANTHOXYLETIN], the Activity in [22] stood at 2.9%; in [28] it was 2.5%.
